Experimental data: US6020360A, “Anticancer property of dithiolopyrrolones” (priority 1996, dated 2000)
Converted amounts (≈) assume the structure as drawn.

Experiments:
[1] = system: human colon cancer cell line HT-29; test: Anticancer activity, SRB growth assay in human colon cancer cell line HT-29 (3 days); format: cell-based; conditions: HT-29, 72 h, HT29, 2,500 cells/well, 570 nm, 0.008-1 μg/ml tested
Method: (§1) These assays are commonly used by those skilled in the art and are accepted as indicative of anticancer activity in mammals. The anticancer activities of dithiolopyrrolones have been determined in cell cultures of human colon cancer cell line HT-29, breast cancer cell line MCF-7 and cervical cancer cell line Hela. The procedure was carried out using the method described by Skehan et al. (1990). Briefly, cancer cells were grown in RPMI-1640 medium with glutamine and 10% fetal calf serum, and were harvested from exponential-phase maintenance cultures. The harvested cells were counted and dispensed into replicate 96-well culture plates in 180 μl volumes for each well with a cell density of 2,500 cells/well. The cells were allowed to settle for about 4 hours at 37° C. Then 20 μl of medium containing the test dithiolopyrrolone was added into each well, resulting in a final test compound concentration between 0.008-1 μg/ml. The test plates were then incubated at 37° C. The test was terminated 3 days after incubation by adding to each well 50 μl of cold 50% trichloroacetic acid. The cells were fixed for an hour at 4° C. and then washed five times with tap water. The washed plates were air-dried and stained for 30 minutes with 0.4% (wt/vol) sulforhodamine B (SRB) which was dissolved in 1% acetic acid. […] Finally, the plates were read in a microtiter plate reader at 570 nm.

[2] = system: breast cancer cell line MCF-7; test: Anticancer activity, SRB growth assay in breast cancer cell line MCF-7 (3 days); format: cell-based; conditions: Homo sapiens, MCF7, 72 h, 2,500 cells/well, 570 nm, 0.008-1 μg/ml tested
Method: as §1

[3] = system: cervical cancer cell line Hela; test: Anticancer activity, SRB growth assay in cervical cancer cell line Hela (3 days); format: cell-based; conditions: Homo sapiens, 72 h, 2,500 cells/well, 570 nm, 0.008-1 μg/ml tested
Method: These assays are commonly used by those skilled in the art and are accepted as indicative of anticancer activity in mammals. The anticancer activities of dithiolopyrrolones have been determined in cell cultures of human colon cancer cell line HT-29, breast cancer cell line MCF-7 and cervical cancer cell line Hela. The procedure was carried out using the method described by Skehan et al. (1990). Briefly, cancer cells were grown in RPMI-1640 medium with glutamine and 10% fetal calf serum, and were harvested from exponential-phase maintenance cultures. The harvested cells were counted and dispensed into replicate 96-well culture plates in 180 μl volumes for each well with a cell density of 2,500 cells/well. The cells were allowed to settle for about 4 hours at 37° C. Then 20 μl of medium containing the test dithiolopyrrolone was added into each well, resulting in a final test compound concentration between 0.008-1 μg/ml. The test plates were then incubated at 37° C. The test was terminated 3 days after incubation by adding to each well 50 μl of cold 50% trichloroacetic acid. The cells were fixed for an hour at 4° C. and then washed five times with tap water. The washed plates were air-dried and stained for 30 minutes with 0.4% (wt/vol) sulforhodamine B (SRB) which was dissolved in 1% acetic acid. At the end of the staining period, the SRB was removed and plates were quickly rinsed, five times with 1 % acetic acid. After being rinsed, the plates were air-dried and 100 μl of 10 mM tris base (pH 10.5) were added to each well to solubilize the dye bound to the cells. The plates were placed on a gyratory shaker and shaken (100 rpm) for 10 minutes. Finally, the plates were read in a microtiter plate reader at 570 nm.

RNA polymerase = conditions: Jimenez et al., 1973, Tipper; cited from earlier work
membrane = conditions: Ninomiya et al., 1980; cited from earlier work
platelet aggregation = conditions: in vitro; Ninomiya et al., 1980; cited from earlier work
[4] = system: ornithin decarboxylase (ODC); conditions: Sharma et al., 1994; cited from earlier work
glutathione = conditions: Sharma et al., 1994; cited from earlier work
mammary cells = mammary cells exposed to carcinogens; Menta and Moon, 1991; Arnold et al., 1995; cited from earlier work

SMILES	IC50 [1] [µg/mL]	IC50 [2] [µg/mL]	IC50 [3] [µg/mL]	inhibition of RNA polymerase synthesis (in words) (RNA polymerase)	membrane stabilization activity (in words) (membrane)	inhibition of platelet aggregation (in words) (platelet aggregation)	inhibition of ODC (in words) [4]	reduction of glutathione (in words) (glutathione)	inhibition of promotion of carcinogenesis-associated activities (in words) (mammary cells)
CC(=O)Nc1c2sscc-2n(C)c1=O [XN0, N-(4,5-dihydro-4-methyl-5-oxo-1,2-dithiolo[4,3-b]pyrrol-6-yl)acetamide]	0.03 (≈ 0.131 µM)	0.08 (≈ 0.35 µM)	0.07 (≈ 0.307 µM)	inhibits RNA polymerase synthesis	has membrane stabilization activity	inhibits platelet aggregation in vitro	inhibits OCD	induces the reduction of glutathione	inhibits the promotion of several other activities possibly associated with the occurrence of carcinogenesis in mammary cells
CC(C)CCCC(=O)Nc1c2sscc-2[nH]c1=O [XN3, N-(4,5-dihydro-5-oxo-1,2-dithiolo[4,3-b]pyrrol-6-yl)5-methylhexanoamide]	–	–	0.09 (≈ 0.316 µM)	–	–	–	–	–	–
CCCCCC(=O)Nc1c2sscc-2n(C)c1=O [XN1, N-(4,5-dihydro-4-methyl-5-oxo-1,2-dithiolo[4,3-b]pyrrol-6-yl)hexanoamide]	–	–	0.13 (≈ 0.457 µM)	–	–	–	–	–	–
